Several values for one entry are separate records, joined by “and”; a condition that tells them apart may be missing. Identical values can stand only once.
Conditions: 101.33 kPa, Liquid

OCC(F)(F)C(F)(F)C(F)(F)C(F)(F)C(F)(F)C(F)F [1,1,7-trihydrododecafluoroheptan-1-ol]
Conditions	mass density
293.15 K	1750.1 kg/m3 and 1750.2 kg/m3
303.15 K	1732.7 kg/m3
313.15 K	1715 kg/m3
323.15 K	1696.9 kg/m3
333.15 K	1678.5 kg/m3
343.15 K	1659.7 kg/m3
